Patent US20200023001A1, “GlycoFix (Structurally And Functionally Repaired Endothelial Glycocalyx)” (Northeastern University, priority 2018, published 2020)

Tests used:
[1] = tested on: Cx-containing gap junctions of RFPEC; test: Lucifer Yellow scratch-loading dye transfer assay (gap junction communication); format: cell-based, rat
Protocol: (§1) Cell Culture. Rat fat pad ECs (RFPEC) at passages 20 to 39 were offspring of cells isolated from rat epididymal fat pad and provided by Dr. Mia Thi of Albert Einstein College of Medicine (Bronx, N.Y.). […] The RFPECs are immortalized, making it possible to use late passages. RFPEC were seeded on 12-14-mm diameter and 0.13-0.17-mm thick glass coverslips at a seeding density of 15,000-20,000 cells/cm^2. Cells were cultured in Dulbecco's Modified Eagle Medium (DMEM, Invitrogen, USA) with 1% penicillin-streptomycin (PS) and 10% fetal bovine serum (FBS, Gibco Life Technologies). Cells were maintained in humidity at 37° C. and 5% CO2. RFPECs reached full confluence in 3 days.
(§2) Cultured RFPECs produce thick and robust GCX in this time period. At 3 days post-seeding the RFPECs' culture medium was supplemented with 1% BSA in place of FBS to stabilize the GCX during preservation and immunolabeling (described below). For enzyme treatment experiments, 25 micro-international units per milliliter (μIU/ml) of heparinase III (Hep III; IBEX, Canada) were added to BSA-containing culture media for 2 hours to degrade HS from the GCX [46]. HepIII was washed out, and the wash-out was followed by a 16-hour incubation of RFPECs in regular BSA-containing media. In self-recovery experiments, RFPEC GCX was left to recover for 24 hours after enzyme degradation. The time frame was chosen in accordance with the 20-hour time period that is required for HS restoration to occur on the surface of ECs. For HS recovery experiments, exogenous HS and/or S1P were applied for 16 hours to accommodate the communication test as an assessment of functional glycocalyx recovery. […] After HS was degraded with HepIII, it was replaced by a 16-hour feeding of RFPECs with 59 μg/ml exogenous porcine mucosal HS (Celsus, Cincinnati, Ohio), based on published serum concentration of HS [43]. In sphingosine-1-phosphate experiments, culture media containing enzyme was substituted for media containing either 10 μM of S1P (Sigma-Aldrich) or a combination of 59 μg/ml of HS and 10 μM of S1P for 16 hours after enzyme degradation.
Dye transfer assay, fluorescence microscopy and image analysis. Gap junction functionality was assessed by loading Lucifer Yellow in RFPECs, using a scratch technique, and observing the extent of Lucifer Yellow transfer from loaded cells to neighboring cells (FIG. 7B). Lucifer Yellow has a molecular weight of 457.3 and can only enter cells via broken membranes or via gap junctions. The scratch loading technique involved pre-incubation of RFPECs (for 1 minute) with calcium- and magnesium-free Hanks' Balanced Salt Solution (HBSS; Life Technology) containing 5 mg/ml Lucifer Yellow dye (Life Technology). A 5-μm diameter tip scribe (Ted Pella, Inc, USA) was then used to carefully create a straight scratch in the RFPEC monolayer and to allow the dye to enter the scratched cells. After the dye was loaded, it spread via open gap junctions to adjacent intact cells, with the extent of Lucifer Yellow spread reaching a plateau by 10 minutes after loading. At that point, excess dye was washed out and RFPECs were imaged at 10× magnification (dry objective) using a Zeiss Observer Z1 fluorescence microscope. From recorded images of dye transfer after scratch loading, ImageJ randomly selected dye spread locations that would be quantified along the scratch. At those random locations, lines perpendicular to the scratch axis were drawn, and the intact fluorescent cells (scratched cells excluded) were counted. […]

[2] = tested on: heparan sulfate (HS) of RFPEC glycocalyx; test: HS expression (coverage) in RFPEC glycocalyx by immunofluorescence confocal microscopy (Example 1); format: cell-based, rat
Protocol: as §1, §2
Immunostaining. RFPECs have high affinity to most antibodies that are available for performing immunocytochemistry. For heparan sulfate (HS), RFPEC monolayers were treated with 2% paraformaldehyde/1% glutaraldehyde in phosphate buffered saline (PBS) for fixation, treated with 2% goat serum in PBS to block non-specific ligands, and stained for three nights at 4° C. with a 1:100 10E4-epitope HS antibody (Amsbio).
As specified by the manufacturer, the HS antibody reacts with many types of heparan sulfate. The reactivity of the HS antibody is abolished after treatment with Hep III, indicating antibody specificity. […]

heparan sulfate [HS]
Lucifer Yellow dye spread, neighboring cells receiving dye per scratch-loaded cell ([1]; RFPEC, Hep III, then 16 h with or without 59 μg/ml HS and/or 10 μM S1P, mean±SEM): 1.03±0.07 cells
Lucifer Yellow dye transfer, result in words (FIG. 4 legend) ([1]; after Hep III, HS 59 μg/ml, S1P 10 μM): Not much Lucifer Yellow dye transfer improvement
HS expression in GCX, result in words (FIG. 2 legend) ([2]; 25 μIU/ml Hep III, HS 59 μg/ml, S1P 10 μM): significant recovery of HS back to baseline conditions
HS coverage of cell surfaces ([2]; RFPEC, Hep III 2 hours, probed 16 hours after, with or without 59 μg/ml exogenous HS and/or 10 μM S1P for the 16 hours, mean±SEM): 65.58±2.26%
